Assay results reported in patent publication US8597904B2, “Pharmaceutical compositions for the treatment of conditions responsive to proteasome inhibition” (priority 2007, dated 2013).
pIC50: −log10 of the molar value. Like-named read-outs stand apart in the source and are kept apart here.

What was measured:
[1] = molecular target: T1, proteasome activity in SKOV3 ovarian cancer cells (Homo sapiens, UniProt P28074); test: Proteasome-Glo cell-based luminescent assay
T1 construct: in vivo proteasome activity in SK-N-SH neuroblastoma cells and SKOV3 human ovarian cancer cells; endogenous in cells; host or cells: SKOV3
T1 sequence (P28074 60-263): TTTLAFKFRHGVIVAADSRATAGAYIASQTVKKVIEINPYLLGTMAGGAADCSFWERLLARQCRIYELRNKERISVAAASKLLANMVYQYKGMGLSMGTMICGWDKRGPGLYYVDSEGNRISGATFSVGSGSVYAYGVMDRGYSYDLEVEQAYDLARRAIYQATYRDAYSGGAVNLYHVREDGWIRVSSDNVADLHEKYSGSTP
Description: Syringolin A was tested as a proteasome inhibitor in vivo in cultured mammalian cancer cells. Inhibition of proteasome activity in human SK-N-SH neuroblastoma cells was measured using the Proteasome-Glo™ cell-based luminescent assay (Promega) in solid white 96-well microtiter cell culture plates. Ten μl of syringolin A (at various concentrations) was added to each well containing SK-N-SH cells (plated at a concentration of 1.0×10^5 cells/ml in 90 μl well volumes 24 hours prior) and a negative control and media only control were included. Cells were incubated with 1-100 μM syringolin A for 2 hours or 24 hours, and then equilibrated to room temperature for 15 minutes before 100 μl of Proteasome-Glo reagent (containing bioluminescent substrate Suc-LLVY-aminoluciferin) was added to the cells. Luminescence (indicated as relative luminescence units [RLU]) was read after 15-30 minutes on a Dynex MLX Luminometer.
The cell culture-based proteasome inhibition assay was performed as previously described (Groll et al. 2008. Nature 452:755-758, which is incorporated herein by reference in its entirety). Briefly, wells of white-walled 96-well microtiter cell culture plates were seeded at a density of 1×10^4 cells/well (SK-N-SH) or 5×10^3 cells/well (SKOV3) in 90 μl. After 24 hours, 10 μl GlbA or SylA were added at increasing concentrations (0-100 μM) and incubated for 2 hours. […] Cell Death Differ 9:1017-1025; Meng, et al. 1999. PNAS 96:10403-10408, each of which is incorporated herein by reference in its entirety) were used as positive and negative controls, respectively. Microtiter plates were then equilibrated to room temperature for 15 min before adding 100 μl of proteasome Glo™ reagent (containing bioluminescent substrate Suc-LLVY-aminoluciferin) per well. Luminescence was measured on a Dynex MLX luminometer, according to the manufacturer's instructions (Promega).

Akt/PKB = test: Western blot of Akt/PKB and phosphorylation at Ser473 in SK-N-SH cells; type: cell-based, human
Description: Since Akt/PKB is a well-characterized anti-apoptotic protein, total Akt/PKB levels were measured in treated cells in addition to determining the protein's phosphorylation status at residue Ser473, which is indicative of its activity. SK-N-SH cells were treated with GlbA in the presence or absence of 3-MA, and cell lysates were analyzed for Akt/PKB.

Papaya latex papain = molecular target: T2, Papaya latex papain (Carica papaya, UniProt P00784); test: SensoLyte Green Protease Fluorometric Assay, papain inhibition; type: biochemical; settings: syringolin A up to 500 μM
T2 construct: Papaya latex papain (Sigma-Aldrich); purchased Sigma-Aldrich; host or cells: papaya latex
T2 sequence (P00784 134-345): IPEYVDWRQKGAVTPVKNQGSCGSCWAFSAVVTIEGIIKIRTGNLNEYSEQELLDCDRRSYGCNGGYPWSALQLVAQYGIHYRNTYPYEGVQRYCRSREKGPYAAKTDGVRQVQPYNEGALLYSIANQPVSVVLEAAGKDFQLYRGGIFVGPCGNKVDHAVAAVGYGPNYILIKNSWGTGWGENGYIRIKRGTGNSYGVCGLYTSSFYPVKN
Description: To test the specificity of syringolin A inhibition of proteasome activities, bovine pancreas trypsin (Pierce) and Papaya latex papain (Sigma-Aldrich) inhibition assays with syringolin A were performed with the SensoLyte™ Green Protease Fluorometric Assay Kit (AnaSpec., San Jose, Calif., USA) according to the instructions of the manufacturer. Reaction volumes of 100 μl contained an enzyme concentration of 200 ng/ml and various amounts of test inhibitors. Protease activity was monitored at 33° C. in a FluoroCount Microplate Fluorometer (FluoroCount, Packard, Canberra, Australia) using 485 nm excitation and a 550 nm emission filters.

[2] = test system: NB and ovarian cancer cells; settings: Coleman et al. 2006, cited from earlier work

Row | Compound | pIC50 ([1]; SKOV3, 2 hours, read-out: IC50 of proteasomal activity) | potency of GlbA relative to SylA ([1]; SKOV3, ratio of IC50) | Akt/PKB phosphorylation at Ser473 (Akt/PKB; GlbA treatment) | total Akt/PKB levels (Akt/PKB; GlbA treatment) | Akt/PKB phosphorylation at Ser473 after pre-treatment with 3-MA (Akt/PKB; GlbA with 3-MA pre-treatment) | papain activity (Papaya latex papain) | pIC50 [1] | proteasome activity in cells ([1]; SKOV3, 2 hours incubation, listed as SylA) | pIC50 ([2]; read-out: IC-50 (concentration at which the cell proliferation rate is reduced to 50%)) | cell morphology ([2]; NB cells, 25 μM, 48 hours)
1 | CCCCCCC/C=C/C=C/C(=O)N[C@H](C(=O)N[C@H]1C[C@@H](O)CCNC(=O)/C=C/[C@H](C)NC1=O)[C@@H](C)O [glidobactin A] | 6.60 | approximately 16 fold | phosphorylated at Ser473 | slight decrease | prevented | – | – | – | – | –
2 | CC(C)[C@H](NC(=O)N[C@H](C(=O)N[C@H]1/C=C/CCNC(=O)/C=C/[C@H](C(C)C)NC1=O)C(C)C)C(=O)O [syringolin A] | – | – | – | – | – | not affected | 5.39 | dose-dependent manner | ~4.60 | severe morphological changes
